Holding throughout (experiment): NCI-60 cell line screen, 48 h
Assay [1] relates to TK-10 renal.
Assay [2] deals with NCI/ADR-RES ovarian.
The subject of assay [3] is U251 CNS.
The test system of assay [4] is SNB-75 CNS.
For assay [5], the system named is MOLT-4 leukemia.
Assay [6] relates to SF-268 CNS.
The subject of assay [7] is NCI-H23 lung.
Assay [8] relates to ACHN renal.
Assay [9] concerns 786-0 renal.
The test system of assay [10] is IGROV1 ovarian.

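Grown in 96-well plates, cells were treated for 48 hours with each compound at five concentrations. Insufficient inhibition: endpoint recorded as highest concentration tested. At the GI50, growth is halved. TGI: concentration producing complete growth inhibition.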 Bounds are passed on as bounds.

Regarding `C=C1C(=O)O[C@H]2[C@H]1CC/C(COC(=O)c1cn(C)c3ccccc13)=C\CC[C@@]1(C)O[C@@H]21`, the GI50 is 1.1 µM in assay [1]; 2.15 µM in [2]; 1.42 µM in assay [3]; 1.09 µM in assay [4]; 0.578 µM in assay [5]; 1.3 µM in assay [6]. The GI50 is 1.93 µM in assay [7], 0.828 µM in assay [8], 1.46 µM in assay [9] and 0.692 µM in assay [10]. In addition, the TGI is 2.3 µM in assay [1]; 14.2 µM in assay [2]; 2.77 µM in [3]; 2.32 µM in [4]; 3.54 µM in [5]; 2.86 µM in assay [6]. Also, the TGI is 4.92 µM in [7], 2.09 µM in assay [8], 2.88 µM in [9] and 2.58 µM in assay [10].
Take `CCNc1cc2oc(=O)cc(C(F)(F)F)c2cc1C`: the TGI in assay [1], in assay [2], in assay [3], in [4], in [5] and in [6] was over 100 µM in each case. Also, the TGI in assay [7], in assay [8], in [9] and in assay [10] was over 100 µM in each case.
As for `O=C1NCN(c2ccccc2)C12CCN(CCCC(c1ccc(F)cc1)c1ccc(F)cc1)CC2`, the GI50 was 1.79 µM in assay [1]; 2.85 µM in [2]; 1.55 µM in assay [3]; 2.07 µM in [4]; 2.31 µM in [5]; 2.04 µM in [6]. For the same compound, the GI50 in assay [7] is 3.31 µM; in [8], 2.79 µM; in assay [9], 1.67 µM; in assay [10], 2.36 µM. Further, the TGI in assay [1] came out at 4.11 µM; in [2], 10.2 µM; in [3] it was 2.91 µM; in assay [4] it was 14.2 µM; in assay [5] it was 5.99 µM; in assay [6], 4.78 µM. Also, the TGI in assay [7] stood at 15.2 µM; in assay [8], 7.23 µM; in assay [9] it was 3.52 µM; in [10], 9.89 µM.
`C[C@]12CC[C@@H]3c4ccc(O)cc4CC[C@H]3[C@@H]1CC[C@@H]2NS(=O)(=O)c1cccc(Cl)c1`: the GI50 was 3.46 µM in assay [1]; 2.39 µM in assay [2]; 2.26 µM in assay [3]; 2.25 µM in [4]; 2.14 µM in assay [5]; 3.23 µM in [6]. The GI50 in assay [7] was 2.72 µM; in assay [8], 2.58 µM; in assay [9], 2.47 µM; in assay [10], 4.23 µM. Moreover, the TGI in assay [1] worked out at 11.2 µM; in assay [2] it was 8.57 µM; in [3] it was 5.48 µM; in assay [4], 9.01 µM; in [5] it was 8.97 µM; in assay [6] it was 13.6 µM. For the same compound, the TGI in assay [7] was 10.8 µM; in assay [8], 7.69 µM; in [9], 6.13 µM; in [10], 16.8 µM.
Take `O=C(Nc1ccc2ncnc(Nc3ccc(Oc4cccc(F)c4)c(Cl)c3)c2c1)c1ccc(CN2CCOCC2)cc1`: the GI50 in assay [1] is 3.08 µM; in assay [2], 2.33 µM; in assay [3], 2.96 µM; in [4] it was 1.97 µM; in assay [5] it was 1.8 µM; in assay [6], 2.6 µM. Moreover, the GI50 in assay [7] is 2.09 µM; in assay [8], 2.26 µM; in [9], 1.97 µM; in assay [10], 1.4 µM. Further, the TGI worked out at 13.5 µM in assay [1]; 7.16 µM in assay [2]; 17.7 µM in assay [3]; 9.22 µM in assay [4]; 4.98 µM in assay [5]; 18.1 µM in assay [6]. Further, the TGI in assay [7] was found to be 5.89 µM; in assay [8], 9.55 µM; in assay [9], 4.33 µM; in [10], 5.5 µM.
With `COc1ccc(OC)c(NC(=O)c2cccc(NC3=C(Cl)C(=O)N(Cc4ccccc4)C3=O)c2)c1`, the GI50 in [1] is over 59.5 µM; in [2], over 67.8 µM; in [3], over 100 µM; in assay [4], over 100 µM; in assay [5], 7.66 µM; in assay [6] it was over 69.2 µM. Also, the GI50 is over 70.8 µM in assay [7], over 100 µM in [8], over 96.2 µM in assay [9] and over 100 µM in assay [10]. In addition, the TGI in assay [1], in assay [2], in assay [3], in assay [4], in assay [5] and in assay [6] was over 100 µM each time. The TGI in assay [7], in [8], in assay [9] and in assay [10] was over 100 µM throughout.
With `Cc1cc2c(cc1C)[n+](=O)c(C(=O)/C=C/c1ccc3c(c1)OCO3)c(C)n2[O-]`, the TGI in [1] was 53.3 µM; in assay [2], over 100 µM; in assay [3], 62.7 µM; in [4] it was 39.9 µM; in [5], over 100 µM; in assay [6], over 76.9 µM. In addition, the TGI in assay [7] was over 89.1 µM; in assay [8], over 75.8 µM; in assay [9] it was over 100 µM; in [10], over 81.5 µM.
Regarding `CCCCC[C@H]1CC=C2C(=O)C=C[C@@H]2CC=CCCCC(=O)O[C@@H](CCCCC)CC=C2C(=O)C=C[C@@H]2CC=CCCCC(=O)O[C@@H](CCCCC)CC=C2C(=O)C=C[C@@H]2CC=CCCCC(=O)O1`, the GI50 is 0.478 µM in assay [1]; 4.24 µM in assay [2]; 0.158 µM in assay [3]; 4.8 µM in [4]; 0.266 µM in [5]; 0.305 µM in assay [6]. For the same compound, the GI50 in [7] is 0.3 µM; in assay [8] it was 0.438 µM; in [9], 0.325 µM; in assay [10] it was 0.279 µM. Moreover, the TGI in assay [1] was 3.53 µM; in assay [2], over 8.75 µM; in assay [3], 0.315 µM; in assay [4] it was over 8.75 µM; in assay [5], over 8.75 µM; in assay [6] it was 7.8 µM. For the same compound, the TGI was 1.93 µM in assay [7], over 8.75 µM in [8], 1.43 µM in [9] and 1.57 µM in [10].
Take `CCC#CC[C@H](O)C/C=C1/C(=O)C=C[C@@H]1C/C=C\CCCC(=O)OC`: the GI50 in assay [1] is 1.66 µM; in [2], 1.16 µM; in assay [3] it was 0.695 µM; in assay [4] it was 5.07 µM; in [5], 0.78 µM; in assay [6] it was 2.05 µM. The GI50 in assay [7] is 1.02 µM; in assay [8], 0.947 µM; in [9], 1.22 µM; in [10], 1.93 µM. The TGI was determined as 3.97 µM in assay [1]; 3.4 µM in [2]; 1.99 µM in [3]; 13.4 µM in [4]; 7.17 µM in assay [5]; 9.22 µM in [6]. The TGI in [7] was found to be 2.78 µM; in [8], 2.07 µM; in assay [9], 2.67 µM; in [10], 7.84 µM.
Consider `O=C1/C(=C/c2ccc(F)c(F)c2)CN(C(=O)C(Cl)Cl)C/C1=C\c1ccc(F)c(F)c1`, for which the GI50 in [1] was 0.258 µM; in assay [2], 0.0633 µM; in [3], 0.0331 µM; in assay [4], 0.29 µM; in assay [5] it was 0.0491 µM; in assay [6], 0.265 µM. For the same compound, the GI50 in assay [7] was 0.139 µM; in assay [8], 0.0776 µM; in [9], 0.181 µM; in assay [10] it was 0.0609 µM. Further, the TGI in assay [1] is 0.84 µM; in assay [2], 0.868 µM; in assay [3], 0.131 µM; in assay [4], 1.3 µM; in assay [5], over 100 µM; in assay [6], 0.982 µM. The TGI is 0.428 µM in assay [7], 0.249 µM in [8], 0.357 µM in assay [9] and 0.264 µM in assay [10].
`CC(CN1CC(=O)NC(=O)C1)N1CC(=O)NC(=O)C1` (stereo not given): the TGI in assay [1] is over 702 µM; in assay [2], over 698 µM; in assay [3], over 750 µM; in assay [4], over 715 µM; in assay [5] it was over 750 µM; in assay [6] it was over 750 µM. The TGI in assay [7] was over 750 µM; in [8] it was over 750 µM; in assay [9], over 750 µM; in assay [10], over 725 µM.
For `C=C(C)[C@@H]1CC[C@]2(COCCCNCCCN)CC[C@]3(C)[C@H](CC[C@@H]4[C@@]5(C)CC[C@H](OCCCN)C(C)(C)[C@@H]5CC[C@]43C)[C@@H]12`, the GI50 in [1] is 0.952 µM; in assay [2], 0.936 µM; in assay [3], 0.836 µM; in [4] it was 0.778 µM; in assay [5], 1.05 µM; in assay [6], 6.77 µM. The GI50 in [7] is 0.934 µM; in assay [8], 0.996 µM; in assay [9], 0.825 µM; in assay [10], 0.93 µM. In addition, the TGI in assay [1] amounted to 1.94 µM; in [2] it was 1.87 µM; in assay [3] it was 1.54 µM; in assay [4], 1.57 µM; in assay [5], 2.58 µM; in assay [6] it was 15.1 µM. Moreover, the TGI was found to be 1.79 µM in assay [7], 1.95 µM in [8], 1.5 µM in [9] and 1.72 µM in assay [10].
